Reference: patent US5057493A, “Novel antibiotics R106” (priority 1988, dated 1991)
Starred links: 1 amine or outer side, 2 acyl side, 3 side chain; linkers in the order of their positions; H or OH if unused. Non-standard residues stand in square brackets, D forms with d. Residues, ends and D or L forms follow the SMILES beside them. ξ: configuration not given here. X2 = CN(C(C(=O)[*:2])C(O)c1ccccc1)[*:1]; X4 = CC(C(=O)O)C(C(=O)[*:2])N(C)[*:1]; ξNMeVal(3-OH) = CNC(C(=O)O)C(C)(C)O; X3 = C=C(C)C(C(=O)[*:2])N(C)[*:1]; X5 = CC(CO)C(C(=O)[*:2])N(C)[*:1]; NMeF = CN[CH](Cc1ccccc1)C(=O)O; X1 = CCC(C)C(O[*:1])C(=O)[*:2]; NMeV = CN[CH](C(=O)O)C(C)C; Hiv = CC(C)[CH](O)C(=O)O

Assays:
[1] = tested on: Cryptococcus neoformans TIMM 0354; test: MIC by agar dilution method, casitone agar; format: cell-based; conditions: Table 5
Procedure: (§1) The minimum inhibitory concentration (MIC) of each antibiotic against various fungi was determined by the agar dilution method using casitone agar medium (2.0% glucose, 0.9% bacto-casitone, 1.0% yeast extract, 0.1% KH2 PO4, 0.1% Na2 HPO4, 1.0% sodium citrate, 2.0% agar: concentrations are all by w/v).
(§2) Each minimum growth inhibitory concentration was determined after culturing at 27° C. for 4 days.

[2] = tested on: Candida glabrata TIMM 1062; test: MIC by agar dilution method, casitone agar; format: cell-based; conditions: Table 5
Procedure: as §1, §2

Candida kefyr TIMM 0301 = test: MIC by agar dilution method, casitone agar; format: cell-based; conditions: Table 5
Procedure: (§3) The antibiotics R106 of the present invention are active against various fungi including pathogenic fungi. The minimum inhibitory concentration (MIC) of each antibiotic against various fungi was determined by the agar dilution method using casitone agar medium (2.0% glucose, 0.9% bacto-casitone, 1.0% yeast extract, 0.1% KH2 PO4, 0.1% Na2 HPO4, 1.0% sodium citrate, 2.0% agar: concentrations are all by w/v).

[3] = tested on: Candida albicans TIMM 1768; test: MIC by agar dilution method, casitone agar; format: cell-based; conditions: Table 5
Procedure: as §3

[4] = tested on: Candida albicans TIMM 0171; test: MIC by agar dilution method, casitone agar; format: cell-based; conditions: Table 5
Procedure: as §3

[5] = tested on: Candida albicans TIMM 0136; test: MIC by agar dilution method, casitone agar; format: cell-based; conditions: Table 5
Procedure: as §3

[6] = 50% lethal dose (LD50) in mice; format: in vivo
Source text: All of the antibiotics R106 show low toxicity. The results of 50% lethal dose (LD50) obtained when each of representative compounds of the present invention was given to mice intravenously, intraperitoneally and orally are shown in Table 7.

SMILES | minimum inhibitory concentration (MIC) [1] | minimum inhibitory concentration (MIC) [2] | minimum inhibitory concentration (MIC) (Candida kefyr TIMM 0301) | minimum inhibitory concentration (MIC) [3] | minimum inhibitory concentration (MIC) [4] | minimum inhibitory concentration (MIC) [5] | LD50 ([6]; i.p.) [mg/kg] | LD50 ([6]; i.v.) [mg/kg] | LD50 ([6]; p.o.) [mg/kg]
CCC(C)C1NC(=O)C2CCCN2C(=O)C(Cc2ccccc2)N(C)C(=O)C(Cc2ccccc2)NC(=O)C(C(C)C)N(C)C(=O)C(C(C)CC)OC(=O)C(C(C)C)N(C)C(=O)C(CC(C)C)NC(=O)C(C(C)C)N(C)C1=O (stereo not drawn) [Compound 7] (cyclo([X1][NMeV]F[NMeF]PI[NMeV]L[NMeV]); configuration not given here) | > 25 | > 25 | 25 | 3.12 | 1.56 | 3.12 | > 200 | > 100 | > 200
CCC(C)C1OC(=O)C(C(C)(C)O)N(C)C(=O)C(CC(C)C)NC(=O)C(C(C)C)N(C)C(=O)C(CC(C)C)NC(=O)C2CCCN2C(=O)C(Cc2ccccc2)N(C)C(=O)C(Cc2ccccc2)NC(=O)C(C(C)C)N(C)C1=O (stereo not drawn) [Compound 9] (cyclo([ξNMeVal(3-OH)][X1][NMeV]F[NMeF]PL[NMeV]L); configuration not given here) | 25 | 0.39 | 0.20 | 0.20 | ≤ 0.05 | ≤ 0.05 | > 200 | > 100 | > 200
CCC(C)C1NC(=O)C2CCCN2C(=O)C(C(O)c2ccccc2)N(C)C(=O)C(Cc2ccccc2)NC(=O)C(C(C)C)N(C)C(=O)C(C(C)CC)OC(=O)C(C(C)(C)O)N(C)C(=O)C(CC(C)C)NC(=O)C(C(C)C)N(C)C1=O (stereo not drawn) [Compound 5] (cyclo([X2]PI[NMeV]L[ξNMeVal(3-OH)][X1][NMeV]F); configuration not given here) | 3.12 | 0.20 | 0.20 | ≤ 0.05 | ≤ 0.05 | ≤ 0.05 | > 200 | > 100 | > 200
CCC(C)C1NC(=O)C2CCCN2C(=O)C(Cc2ccccc2)N(C)C(=O)C(Cc2ccccc2)NC(=O)C(C(C)C)N(C)C(=O)C(C(C)CC)OC(=O)C(C(C)CO)N(C)C(=O)C(CC(C)C)NC(=O)C(C(C)C)N(C)C1=O (stereo not drawn) [Compound 4] (cyclo([X5][X1][NMeV]F[NMeF]PI[NMeV]L); configuration not given here) | 25 | 1.56 | 0.78 | 0.39 | 0.10 | 0.20 | – | – | –
CCC(C)C1NC(=O)C2CCCN2C(=O)C(Cc2ccccc2)N(C)C(=O)C(Cc2ccccc2)NC(=O)C(C(C)C)N(C)C(=O)C(C(C)C)OC(=O)C(C(C)(C)O)N(C)C(=O)C(CC(C)C)NC(=O)C(C(C)C)N(C)C1=O (stereo not drawn) [Compound 2] (cyclo([ξNMeVal(3-OH)][Hiv][NMeV]F[NMeF]PI[NMeV]L); configuration not given here) | 1.56 | 0.20 | 0.20 | 0.78 | 0.10 | 0.10 | > 200 | > 100 | > 200

More lines, main results first:

minimum inhibitory concentration (MIC) [1] | minimum inhibitory concentration (MIC) [2] | minimum inhibitory concentration (MIC) (Candida kefyr TIMM 0301) | minimum inhibitory concentration (MIC) [3] | minimum inhibitory concentration (MIC) [4] | minimum inhibitory concentration (MIC) [5] | SMILES | LD50 ([6]; i.p.) [mg/kg] | LD50 ([6]; i.v.) [mg/kg] | LD50 ([6]; p.o.) [mg/kg]
> 25 | > 25 | 3.12 | 25 | 1.56 | 3.12 | CCC(C)C1NC(=O)C2CCCN2C(=O)C(Cc2ccccc2)N(C)C(=O)C(Cc2ccccc2)NC(=O)C(C(C)C)N(C)C(=O)C(C(C)CC)OC(=O)C(C(C)C)N(C)C(=O)C(CC(C)C)NC(=O)C(C(C)C)NC1=O (stereo not drawn) [Compound 16] (cyclo([X1][NMeV]F[NMeF]PIVL[NMeV]); configuration not given here) | – | – | –
25 | 1.56 | 0.39 | 0.39 | 0.39 | 0.78 | CCC(C)C1NC(=O)C2CCCN2C(=O)C(Cc2ccccc2)N(C)C(=O)C(Cc2ccccc2)NC(=O)C(C(C)C)N(C)C(=O)C(C(C)CC)OC(=O)C(C(C)(C)O)N(C)C(=O)C(CC(C)C)NC(=O)C(C(C)C)NC1=O (stereo not drawn) [Compound 6] (cyclo([ξNMeVal(3-OH)][X1][NMeV]F[NMeF]PIVL); configuration not given here) | – | – | –
> 25 | 12.5 | 6.25 | 12.5 | 1.56 | 1.56 | C=C(C)C1C(=O)OC(C(C)CC)C(=O)N(C)C(C(C)C)C(=O)NC(Cc2ccccc2)C(=O)N(C)C(Cc2ccccc2)C(=O)N2CCCC2C(=O)NC(C(C)CC)C(=O)N(C)C(C(C)C)C(=O)NC(CC(C)C)C(=O)N1C (stereo not drawn) [Compound 14] (cyclo([X3][X1][NMeV]F[NMeF]PI[NMeV]L); configuration not given here) | – | – | –
> 25 | > 25 | 25 | 12.5 | 12.5 | 6.25 | CCC(C)C1NC(=O)C2CCCN2C(=O)C(Cc2ccccc2)NC(=O)C(Cc2ccccc2)NC(=O)C(C(C)C)N(C)C(=O)C(C(C)CC)OC(=O)C(C(C)C)N(C)C(=O)C(CC(C)C)NC(=O)C(C(C)C)N(C)C1=O (stereo not drawn) [Compound 13] (cyclo([X1][NMeV]FFPI[NMeV]L[NMeV]); configuration not given here) | – | – | –
25 | 3.12 | 3.12 | 12.5 | 0.78 | 0.78 | CCC(C)C1NC(=O)C2CCCN2C(=O)C(Cc2ccccc2)N(C)C(=O)C(Cc2ccccc2)NC(=O)C(C(C)C)N(C)C(=O)C(C(C)CC)OC(=O)C(C(C)C(=O)O)N(C)C(=O)C(CC(C)C)NC(=O)C(C(C)C)N(C)C1=O (stereo not drawn) [Compound 10] (cyclo([X4][X1][NMeV]F[NMeF]PI[NMeV]L); configuration not given here) | – | – | –
> 25 | > 25 | > 25 | > 25 | 25 | 12.5 | CCC(C)C1NC(=O)C2CCCN2C(=O)C(Cc2ccccc2)N(C)C(=O)C(Cc2ccccc2)NC(=O)C(C(C)C)N(C)C(=O)C(C(C)CC)OC(=O)C(Cc2ccccc2)N(C)C(=O)C(CC(C)C)NC(=O)C(C(C)C)N(C)C1=O (stereo not drawn) [Compound 17] (cyclo([X1][NMeV]F[NMeF]PI[NMeV]L[NMeF]); configuration not given here) | – | – | –
